Assay results taken from patent publication US20210236487A1, “Methods and Compositions for Treatment of Cancer with PARP Inhibitors” (Rush University Medical Center, priority 2018, published 2021).
“And” between values parts separate entries of the source, which are not always exact repeats. Identical values can stand only once. “Also recorded” adds a separate entry of the source.

Tests used:
[1] = Hellman, 1964; cited from earlier work
[2] = Response to folic acid supplementation in patients on olaparib; format: in vivo, human; conditions: for Response to folic acid supplementation: on olaparib
Experimental: (§1) A formal assessment of folic acid level along with a chart review of olaparib treated ovarian cancer patients was conducted to determine the frequency of severe folic acid deficiency in this population and the impact of replacement therapy on outcome. This was an IRB-approved study performed at Rush University Medical Center from Dec. 1, 2016 to Apr. 3, 2017. Data collection was conducted in accordance with good clinical practice guidelines and the provisions of declaration of Helsinki. Data collected included cancer history, date of initiation of olaparib, duration of olaparib use, CBC data, peripheral smear/RBC morphology data, Vitamin B12, folic acid levels, iron studies with ferritin, reticulocyte count, LDH levels, haptoglobin levels, TSH levels, any treatment administered for hematological toxicities including nutritional supplementation or blood product transfusion, dose reductions or cessation of olaparib use and indication for such intervention were collected for all patients.

[3] = Serum folic acid level in olaparib-treated cancer patients (chart review / case series); format: in vivo, human; conditions: for Folic Acid Level: on olaparib, reference range 7.0-31.4 ng/mL
Experimental: as §1

[4] = Hematologic toxicity (Hgb, MCV, other abnormalities, transfusion, dose reduction) in olaparib-treated patients (chart review / case series); format: in vivo, human; conditions: for Transfusion requirement: secondary to anemia noted after administration of Olaparib; for Transfusion required: secondary to anemia noted while patient receiving olaparib
Experimental: as §1

ovarian cancer = experiment: Treatment outcome on olaparib (case series); format: in vivo, human
Experimental: as §1

[5] = test system: gBRCA-mutated advanced ovarian cancer; conditions: Phase II trials, cited from earlier work
[6] = cited from earlier work
[7] = Table 1, patient/age c1 A/61, c2 B/78, c3 C/63, c4 D/57
[8] = Table 2a, patient/age c1 A/61, c2 B/78, c3 C/63, c4 D/57
[9] = Table 2b, patient/age c1 E, c2 F, c3 G, c4 H
[10] = Table 3a, patient/age c1 A/62, c2 B/78, c3 C/63, c4 D/57
[11] = Table 3b, patient/age c1 E, c2 F, c3 G, c4 H

CN(Cc1cnc2nc(N)nc(N)c2n1)c1ccc(C(=O)N[C@@H](CCC(=O)O)C(=O)O)cc1 [Methotrexate]
serum folate level [1]: variably decreased

Nc1nc2ncc(CNc3ccc(C(=O)N[C@@H](CCC(=O)O)C(=O)O)cc3)nc2c(=O)[nH]1 [folic acid]
anemia and macrocytosis after folic acid supplementation ([2]; Patient A on olaparib, oral folic acid 1 mg daily): improved
Hgb after folic acid supplementation ([2]; Patient B, two weeks after starting folic acid 1 mg daily, no longer required blood transfusions): markedly improved
folic acid level after supplementation ([2]; Patient C on olaparib, two weeks of folic acid 1 mg daily, minimally increased from prior value): 2.9 ng/mL
folic acid level after supplementation ([2]; Patient C, folic acid supplementation increased to 2 mg TID): normalized
Hgb stabilized after supplementation ([2]; Patient C, folic acid supplementation increased to 2 mg TID, olaparib briefly held): around 9 g/dL
folic acid level after supplementation ([2]; Patient D on olaparib, folic acid 1 mg daily): subsequent improvement
Response to folic acid supplementation ([2]; Table 1, patient/age c1 A/61, c2 B/78, c3 C/63, c4 D/57, improvement of folic acid level to within the reference range (≥7.0 ng/mL)): Yes
Response to folic acid supplementation ([2]; Table 2a, patient/age c1 A/61, c2 B/78, c3 C/63, c4 D/57, improvement of folic acid level to within the reference range (≥7.0 ng/mL)): Yes and No
Response to folic acid supplementation ([2]; Table 2b, patient/age c1 E, c2 F, c3 G, c4 H, improvement of folic acid level to within the reference range (≥7.0 ng/mL)): Yes
Response to folic acid supplementation ([2]; Table 3a, patient/age c1 A/62, c2 B/78, c3 C/63, c4 D/57, improvement of folic acid level to within reference range): Yes
Response to folic acid supplementation ([2]; Table 3b, patient/age c2, improvement of folic acid level to within reference range): Yes
correction of olaparib-induced folic acid deficiency ([2]; folic acid supplementation at variable doses): can correct

O=C(c1cc(Cc2n[nH]c(=O)c3ccccc23)ccc1F)N1CCN(C(=O)C2CC2)CC1 [olaparib, 4-[(3-[(4-cyclopropylcarbonyl)piperazin-4-yl]carbonyl)-4-fluorophenyl]methyl(2H)-phthalazin-1-one]
folic acid level (severe folic acid deficiency) in three additional patients ([3]; 3 other women, after taking olaparib for at least four weeks): < 1.6 ng/mL
folate level ([3]; Case report, Patient A on olaparib, Normal: 7-31.4 ng/mL): < 1.6 ng/mL
folic acid level (severe folic acid deficiency) ([3]; Patient B on olaparib): < 1.6 ng/mL
folic acid level (severe folic acid deficiency) ([3]; Patient C, approximately 4 weeks after starting olaparib): < 1.6 ng/mL
folic acid level (severely low) ([3]; Patient D on olaparib): 1.6 ng/mL
Folic Acid Level [3, 7]: <1.6 ng/mL and 1.6 ng/mL
Folic Acid Level [3, 8]: <1.6 ng/mL and 1.6 ng/mL
Folic Acid Level [3, 9]: 4.9 ng/mL and 5.2 ng/mL and 3.7 ng/mL and 6.2 ng/mL
folate level after initiation of olaparib ([3]; available laboratory data of the case series): drops precipitously within weeks
patients who developed transfusion-dependent anemia ([4]; 4 cases, in the course of treatment with olaparib): Three of the four
hgb (severe anemia) ([4]; Case report, Patient A, after 5 weeks of olaparib therapy, requiring blood transfusion): 6.6 g/dL
MCV (macrocytic anemia) ([4]; Case report, Patient A, at the time of Hematology evaluation): 110.7 fL
Hgb (macrocytic anemia) ([4]; Case report, Patient A, at the time of Hematology evaluation, olaparib reduced to 100 mg BID): 9.0 g/dL
Hgb (acute decrease) ([4]; Patient B, five weeks after starting olaparib, from 8 g/dL, requiring blood transfusion): 6.8 g/dL
Hgb (further decrease) ([4]; Patient C on olaparib, two weeks after start of folic acid 1 mg daily, requiring blood transfusion): 6.3 g/dL
Hgb (drop in baseline) ([4]; Patient C, approximately 4 weeks after starting olaparib, from 14 g/dL): 10 g/dL
Hgb (mild anemia) ([4]; Patient D, while on olaparib for 6 months): 9 to 10 g/dL
Dose Reduction or Delay of Olaparib/Cause ([4]; Table 1, patient/age c1 A/61, c2 B/78, c3 C/63, c4 D/57, cause of dose change): anemia
Dose Reduction or Delay of Olaparib/Cause ([4]; Table 1, patient/age c1 A/61, c2 B/78, c3 C/63, c4 D/57, dose reduced or delayed): Yes/ and No
Other Hematologic Abnormalities ([4]; Table 1, patient/age c1 A/61, c2 B/78, c3 C/63, c4 D/57, noted at time of initial Hematology assessment): Leukopenia and None and Thrombo-
Hgb Nadir ([4]; Table 1, patient/age c1 A/61, c2 B/78, c3 C/63, c4 D/57, on olaparib, reference range 12.0-16.0 g/dL): 6.6 g⁻¹ dL⁻¹ and 6.3 g⁻¹ dL⁻¹ and 8.8 g⁻¹ dL⁻¹
MCV Nadir ([4]; Table 1, patient/age c1 A/61, c2 B/78, c3 C/63, c4 D/57, on olaparib, reference range 82.0-103.0 fL): 110.7 fL and 102.0 fL and 91.6* fL and 98.1 fL
Transfusion requirement [4, 7]: Yes and No
Dose Reduction or Delay of Olaparib/Cause [4, 8]: Yes, anemia and Yes, and No and anemia
Other Hematologic Abnormalities ([4]; Table 2a, patient/age c1 A/61, c2 B/78, c3 C/63, c4 D/57, noted at time of initial Hematology assessment): Leukopenia; and None and Thrombo-
Hgb Nadir ([4]; Table 2a, patient/age c1 A/61, c2 B/78, c3 C/63, c4 D/57, on olaparib, reference range 12.0-16.0 g/dL): 6.6 g⁻¹ dL⁻¹ and 6.3 g⁻¹ dL⁻¹ and 8.8 g⁻¹ dL⁻¹
MCV Nadir ([4]; Table 2a, patient/age c1 A/61, c2 B/78, c3 C/63, c4 D/57, on olaparib, reference range 82.0-103.0 fL): 110.7 fL and 102.0 fL and 91.6* fL and 98.1 fL
Transfusion requirement [4, 8]: Yes and No
Dose Reduction or Delay of Olaparib/Cause [4, 9]: No and Yes, neutropenia, and Yes, folic acid and anemia, fatigue, and dyspnea
Other Hematologic Abnormalities ([4]; Table 2b, patient/age c1 E, c2 F, c3 G, c4 H, noted at time of initial Hematology assessment): Leukopenia;; also recorded: Leukopenia; also recorded: Thrombocytopenia
MCV Nadir ([4]; Table 2b, patient/age c1 E, c2 F, c3 G, c4 H, on olaparib, reference range 82.0-103.0 fL): 112.0 fL and 115.8 fL and 93.2 fL and 98.9 fL
Transfusion requirement [4, 9]: No and Yes
Dose Reduction or Delay of Olaparib/Cause [4, 10]: Yes/anemia and No
Hgb Nadir ([4]; Table 3a, patient/age c1 A/62, c2 B/78, c3 C/63, c4 D/57, lowest value documented while receiving olaparib, reference range 12.0 to 16.0 g/dL): 6.6 g⁻¹ dL⁻¹ and 6.3 g⁻¹ dL⁻¹ and 8.8 g⁻¹ dL⁻¹
Other Hematologic Abnormalities ([4]; Table 3a, patient/age c1 A/62, c2 B/78, c3 C/63, c4 D/57, noted at time of initial hematologic assessment): Thrombo- and Leukopenia; and None
Transfusion required [4, 10]: Yes and No
MCV Nadir ([4]; Table 3a, patient/age c1 A/62, c2 B/78, c3 C/63, c4 D/57, while receiving olaparib, reference range 82.0 to 103.0 fL): 110.7 fL and 102.0 fL and 91.6 fL and 98.1 fL
Hgb Nadir ([4]; Table 3b, patient/age c1 E, c2 F (200 mg once per day), c3 G, c4 H (metastatic breast cancer), lowest value while receiving olaparib, reference range 12.0 to 16.0 g/dL): 10.8 g⁻¹ dL⁻¹ and 8.1 g⁻¹ dL⁻¹ and 12.2 g⁻¹ dL⁻¹ and 10.4 g⁻¹ dL⁻¹
Dose Reduction or Delay of Olaparib/Cause ([4]; Table 3b, patient/age c1 E, c2 F (reduced dose 200 mg once per day from the onset), c3 G/52, c4 H/35): No and No^k and Yes/rash
Other Hematologic Abnormalities ([4]; Table 3b, patient/age c1 E, c2 F, c3 G, c4 H, noted at time of initial hematologic assessment): Leukopenia; and None and Thrombo-
Transfusion required [4, 11]: No
MCV Nadir ([4]; Table 3b, patient/age c1 E, c2 F, c3 G, c4 H, while receiving olaparib, reference range 82.0 to 103.0 fL): 105.6 fL and 103.1 fL and 93.5 fL and 85.8 fL
Treatment outcome: discontinued because of (ovarian cancer; [10]): progression; also recorded: refractory anemia; also recorded: diarrhea
Treatment outcome: treatment stopped after (ovarian cancer; Table 3b, patient E/73): after 20 days
Treatment outcome: discontinued because of / status (ovarian cancer; [11]): months; ongoing; also recorded: progression
progression-free survival ([5]; advanced ovarian cancer): significantly prolonged
overall response rate (ORR) ([5]; gBRCA-mutated advanced ovarian cancer, three or more previous lines of chemotherapy): 34%
myelodysplastic syndrome/Acute Myeloid Leukemia, olaparib-treated patients ([6]; Olaparib PI): 2%
adverse reactions leading to discontinuation of olaparib, patients ([6]; clinical trials (Olaparib PI)): 9%
adverse reactions leading to dose interruptions, patients ([6]; clinical trials (Olaparib PI)): 26%
adverse reactions leading to dose reductions, patients ([6]; clinical trials (Olaparib PI)): 15%
